Data set [1] relates to ESKAPE pathogens S. aureus (ATCC 43300), E. coli (ATCC 25922), K. pneumoniae (ATCC 700603), A. baumannii (ATCC 19606), P. aeruginosa (ATCC 27853). Put plainly: Broth microdilution MIC assay, ESKAPE pathogens. In kind it is cell-based. (Dilution methods test growth across graded concentrations, often in twofold steps.)
Data set [2] can be described thus: Broth microdilution MIC assay, ESKAPE pathogens. Conditions: S. aureus, E. coli, K. pneumoniae, A. baumannii, P. aeruginosa; read-out: antibacterial MIC ESKAPE. In kind it is cell-based.
Data set [3] deals with L. donovani MHOM/IN/80/DD8 (ATCC50212). Put plainly: L. donovani DD8 intracellular (THP-1) amastigote assay. The class given is cell-based. Conditions: Leishmania donovani.
Data set [4] deals with M. tuberculosis (H37Rv). Kind of data set: M. tuberculosis H37Rv resazurin reduction microplate MIC assay, hypoxic conditions (0.1% oxygen). The class given is cell-based, Mycobacterium tuberculosis. Conditions: H37Rv, hypoxia (0.1% oxygen). On the technique in general: Alamar Blue is a resazurin reagent that responds to reducing activity.
Data set [5] can be described thus: Mammalian cytotoxicity, liver HepG2 and kidney HEK293 cell lines stated together. Conditions: human.
Data set [6] is described as follows: Kinetic solubility determination by LC-UV. The conditions noted are these: room temperature, 1% DMSO.
A short description of data set [7]: in vitro. Conditions: human.
The nature of data set [8]: Mammalian cytotoxicity assay (resazurin), HEK293. The conditions noted are these: human, HEK293 cells.
Data set [9] in a line: Mammalian cytotoxicity assay (resazurin), HepG2. Conditions: human, HepG2 cells.
Data set [10] has as its system E. histolytica (HM1:IMSS). Put plainly: ATP-bioluminescence cell growth and survival assay, E. histolytica trophozoites. The class given is cell-based. The conditions noted are these: Entamoeba histolytica.
The subject of data set [11] is C. difficile (630, ATCC BAA-1382). Put plainly: Broth microdilution MIC assay, C. difficile. The conditions noted are these: 630 ATCC BAA-1382, median MIC; for MIC: Clostridioides difficile, ATCCBAA1382, read-out: antibacterial MIC C. difficile. The class given is cell-based, Clostridium difficile.
The nature of data set [12]: in vitro. Conditions: human. The source holds these as a separate data set.
Data set [13] concerns C. albicans (ATCC 90028) and C. neoformans (H99, ATCC 208821). Put plainly: Broth microdilution MIC assay, fungi. In kind it is cell-based.
A short description of data set [14]: in vitro. The conditions noted are these: human, Caco-2, pH 7.4.
Data set [15] can be described thus: physchem.
Where [16] appears, read: read-out: antiparasitic IC50 L. donovani.
Setting [17] is: read-out: antiparasitic pIC50 ± SE L. donovani (converted).
Where [18] appears, read: PBS, pH 7.4, Solubility µM (PBS), PBS pH 7.4, 24 h.
Where [19] appears, read: water, Solubility µM (H2O), 24 h.

The structures appear in SMILES notation. ≈ marks a conversion by molar mass, not a printed value. Like-named read-outs stand apart in the source and are kept apart here.

What is called MIC is the lowest concentration that inhibits growth of the organism. Usually solubility stands for how much of the substance goes into solution per volume. Read a low solubility as a poorly soluble substance. Regarding `O=c1c2nc([N+](=O)[O-])cn2ccn1Cc1ccccc1` [17b, 7-Benzyl-2-nitroimidazo[1,2-a]pyrazin-8(7H)-one], the “antibacterial MIC ESKAPE” value in data set [1] is above 32 µg/mL. The MIC in [2] is above 32 µg/mL. The IC50 in data set [3] (setting [16]) was above 80 µM; in data set [3] (setting [17]), above 79.4 µM. Further, the “antibacterial MIC M. tuberculosis hypoxia” value in data set [4] lay within 4.0 to 8.0 µg/mL. The CC50 at 24 h in data set [5] is 98 to 123 µM; in [7], 105 µM. For the same compound, the solubility at 24 h in [6] (setting [18]) and in data set [6] (setting [19]) was below 5 µM each time.
For the compound `O=c1c2nc([N+](=O)[O-])cn2ccn1C1CCCCC1` [17t, 7-Cyclohexyl-2-nitroimidazo[1,2-a]pyrazin-8(7H)-one], the “antibacterial MIC ESKAPE” value in data set [1] was above 32 µg/mL. Further, the values for the MIC in [2] and in [11] were above 32 µg/mL and above 64 µg/mL, respectively. Besides, the IC50 is above 80 µM in [3] (setting [16]), above 79.4 µM in data set [3] (setting [17]), above 50 µM in data set [10] (read-out: antiparasitic IC50 E. histolytica) and above 50.1 µM in data set [10] (read-out: antiparasitic pIC50 ± SE E. histolytica (converted)). For the same compound, the CC50 at 24 h in data set [5] (HepG2 and HEK293 cells) is 98 to 123 µM; in [8], 112 µM; in data set [9], 123 µM. The solubility at 24 h in [6] (setting [18]) and in data set [6] (setting [19]) was below 10 µM each time. In addition, the “antibacterial MIC C. difficile” value in data set [11] is above 64 µg/mL.
As for `O=c1[nH]c(-c2ccccc2)cn2cc([N+](=O)[O-])nc12` [24a, 2-Nitro-6-phenylimidazo[1,2-a]pyrazin-8(7H)-one], the “antibacterial MIC ESKAPE” value in data set [1] was above 32 µg/mL. Moreover, the minimal inhibitory concentration (MIC) in [2] is above 32 µg/mL; in data set [13] (Candida albicans, read-out: antifungal MIC), above 32 µg/mL; in data set [11], above 64 µg/mL. Besides, the values for the IC50 in data set [3] (setting [16]) and in [3] (setting [17]) were above 80 µM and above 79.4 µM, respectively. Also, the CC50 in data set [12] and in data set [7] was above 100 µM each time. Also, in data set [13], the “antifungal MIC” value was above 32 µg/mL. In data set [11], the “antibacterial MIC C. difficile” value was above 64 µg/mL.
As usually defined, the Papp A→B is the apparent permeability from the apical to the basolateral side of a cell layer. As usually defined, the Papp B→A is how fast a substance crosses the layer from the basolateral side. `O=[N+]([O-])c1cn2c(n1)OC[C@@H](OCc1ccc(OC(F)(F)F)cc1)C2` [pretomanid 6, pretomanid, reference compound]: in data set [1], the “antibacterial MIC ESKAPE” value is above 32 µg/mL. Besides, the Papp A→B at 2 h, 2 µM in data set [14] worked out at 29 ×10⁻⁶ cm/s. In data set [14], this compound returned a Papp B→A at 2 h, 2 µM of 22 ×10⁻⁶ cm/s. Besides, the CC50 at 24 h in data set [8] and in data set [9] was above 100 µM throughout. Further, the solubility in [15] stood at 11.3 ± 3.07 µM (≈ 4.06 µg/mL); in data set [15] (pH 7.4), 10.6 ± 1.76 µM (≈ 3.81 µg/mL). The “antifungal MIC” value in [13] is above 32 µg/mL.

For the origin of these results see paper PMC6311682, “Design, Synthesis, and Biological Evaluation of 2-Nitroimidazopyrazin-one/-es with Antitubercular and Antiparasitic Activity” (Journal of Medicinal Chemistry, 2018).
